# Target: T1, CT775 (Chlamydia LPCAT) (Chlamydia trachomatis, UniProt O84780)
# T1 construct: gene CT_775; full-length gene (253 residues predicted) in pET28a, His-tagged, expressed in E. coli BL21DE3; cleared lysate or membrane fraction, not purified
# Assay: radiometric TLC assay of […]PC formation from lysoPC
# Type: biochemical
# Settings: labelled compound; acyl donor with 20 umol/L egg lysoPC; pH 7.0, 37 C, Tween-20
# T1 sequence (O84780 entry or part of it): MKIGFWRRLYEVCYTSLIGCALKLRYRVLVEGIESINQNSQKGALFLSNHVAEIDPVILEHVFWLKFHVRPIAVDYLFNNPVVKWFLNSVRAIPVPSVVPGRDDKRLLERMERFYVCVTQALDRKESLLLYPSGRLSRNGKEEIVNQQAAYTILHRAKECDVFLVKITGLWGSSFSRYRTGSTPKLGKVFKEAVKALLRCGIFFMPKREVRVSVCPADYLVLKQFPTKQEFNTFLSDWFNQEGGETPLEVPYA
smiles,measurement,value
CCCCCCCC/C=C\CCCCCCCC(=O)SCCNC(=O)CCNC(=O)[C@H](O)C(C)(C)COP(=O)(O)OP(=O)(O)OC[C@H]1O[C@@H](n2cnc3c(N)ncnc32)[C@H](O)[C@@H]1OP(=O)(O)O [C18:1-CoA],radiometric TLC assay of [14C]PC formation from lysoPC,The rate of PC formation by CT775 was dependent on the concentration of oleoyl-CoA

# From paper PMC4398506, “Remodeling of host phosphatidylcholine by Chlamydia acyltransferase is regulated by acyl-CoA binding protein ACBD6 associated with lipid droplets” (MicrobiologyOpen, 2015)
